Read-outs that look alike come from different tables or passages of the source.
Experiments:
[1] = Microsomal stability assay, dog; assay type: in vitro ADME; conditions: metabolic stability, dog liver microsomes 0.5 mg/mL, substrate 3 uM
Method: (§1) The micorsomal stability assay is generally performed as follows. Format: 15 compounds (and 1 control verapamil) in 3 different species in duplicate sets Substrate: 3 uM Protein concentration: 0.5 mg/mL (for dog, rat, and human liver microsomes) Cofactor: 1×NADPH-Regenerating system Time-points: 2, 12, 25, 45, and 65 minutes [table] Sample preparation: 25 uL at each timepoint is added to plate with 225 uL quenching solution (50% MeOH, 25% ACN, 25% H2O, and 50 nM […]). After plates are vortexed, centrifuge for 30 minutes. Microsomal solutions: take 400 uL of 20 mg/mL microsomes and add to 13,680 uL 100 mM KPO4 buffer. Using an 8-channel, add 650 uL of this solution to the designated two columns on a short plate. The order should be dog microsomes in columns 1 and 2, rat microsomes in columns 3 and 4, and human microsomes in columns 5 and 6. Keep on ice before use. Place this plate in incubator 1 on the TECAN countertop.

[2] = biological target: wild-type human cardiac sodium channel, hNav1.5 (peak INa) (Homo sapiens, UniProt Q14524); assay: Peak INa screening assay (tonic and use-dependent block); assay type: cell-based; conditions: 1 μM
wild-type human cardiac sodium channel, hNav1.5 (peak INa), sequence (Q14524 whole entry): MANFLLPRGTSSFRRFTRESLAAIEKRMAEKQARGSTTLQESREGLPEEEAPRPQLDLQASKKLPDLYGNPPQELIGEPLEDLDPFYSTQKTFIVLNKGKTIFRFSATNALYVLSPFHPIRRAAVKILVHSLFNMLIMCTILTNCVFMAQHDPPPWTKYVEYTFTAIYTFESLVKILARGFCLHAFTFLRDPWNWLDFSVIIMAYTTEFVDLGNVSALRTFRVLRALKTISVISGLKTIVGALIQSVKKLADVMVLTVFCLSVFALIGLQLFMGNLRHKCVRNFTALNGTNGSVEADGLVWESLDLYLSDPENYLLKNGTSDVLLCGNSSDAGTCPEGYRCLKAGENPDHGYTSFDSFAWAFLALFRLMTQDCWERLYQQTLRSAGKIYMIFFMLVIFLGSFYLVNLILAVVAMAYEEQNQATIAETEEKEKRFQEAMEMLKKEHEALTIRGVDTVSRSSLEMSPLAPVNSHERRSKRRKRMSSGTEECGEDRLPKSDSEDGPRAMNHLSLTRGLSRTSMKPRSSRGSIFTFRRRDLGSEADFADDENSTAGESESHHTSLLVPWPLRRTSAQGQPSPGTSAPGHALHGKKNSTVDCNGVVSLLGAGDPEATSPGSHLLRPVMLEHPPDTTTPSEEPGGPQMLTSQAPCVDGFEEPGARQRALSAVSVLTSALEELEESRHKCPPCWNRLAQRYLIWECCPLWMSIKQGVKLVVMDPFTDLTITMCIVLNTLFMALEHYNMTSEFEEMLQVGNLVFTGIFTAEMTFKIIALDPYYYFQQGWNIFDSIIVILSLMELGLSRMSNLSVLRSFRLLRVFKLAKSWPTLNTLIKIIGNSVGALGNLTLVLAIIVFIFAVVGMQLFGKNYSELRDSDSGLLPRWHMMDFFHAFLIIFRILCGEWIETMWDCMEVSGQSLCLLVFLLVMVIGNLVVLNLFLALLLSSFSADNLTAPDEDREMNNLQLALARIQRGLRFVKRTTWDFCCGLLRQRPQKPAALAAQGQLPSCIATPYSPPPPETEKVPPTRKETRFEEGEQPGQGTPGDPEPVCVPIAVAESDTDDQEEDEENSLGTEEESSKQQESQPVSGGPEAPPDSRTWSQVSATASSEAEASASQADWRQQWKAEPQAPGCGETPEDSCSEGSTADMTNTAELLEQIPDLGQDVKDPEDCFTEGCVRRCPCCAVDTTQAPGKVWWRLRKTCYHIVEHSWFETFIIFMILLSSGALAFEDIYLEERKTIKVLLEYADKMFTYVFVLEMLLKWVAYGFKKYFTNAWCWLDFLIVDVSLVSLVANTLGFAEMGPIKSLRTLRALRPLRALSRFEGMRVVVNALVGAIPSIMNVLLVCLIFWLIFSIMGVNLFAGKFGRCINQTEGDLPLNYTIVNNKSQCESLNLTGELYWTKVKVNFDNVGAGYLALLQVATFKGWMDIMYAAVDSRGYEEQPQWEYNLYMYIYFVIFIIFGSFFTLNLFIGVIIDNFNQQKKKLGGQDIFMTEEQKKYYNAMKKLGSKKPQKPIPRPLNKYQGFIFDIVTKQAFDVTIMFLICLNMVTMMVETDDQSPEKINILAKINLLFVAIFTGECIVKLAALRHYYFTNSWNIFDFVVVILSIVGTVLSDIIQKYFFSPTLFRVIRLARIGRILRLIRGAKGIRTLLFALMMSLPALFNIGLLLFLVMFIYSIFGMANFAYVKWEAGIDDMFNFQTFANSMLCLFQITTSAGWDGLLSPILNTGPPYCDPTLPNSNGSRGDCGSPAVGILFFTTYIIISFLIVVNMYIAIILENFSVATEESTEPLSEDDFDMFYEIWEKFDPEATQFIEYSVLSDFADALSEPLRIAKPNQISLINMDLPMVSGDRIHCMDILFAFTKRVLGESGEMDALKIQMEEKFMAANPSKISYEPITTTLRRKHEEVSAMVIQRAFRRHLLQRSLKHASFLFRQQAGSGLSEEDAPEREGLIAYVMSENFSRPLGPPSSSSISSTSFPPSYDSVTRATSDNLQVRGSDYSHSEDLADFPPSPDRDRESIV
Method: The late sodium current (Late INa) and peak sodium current (Peak INa) assays are performed on an automated electrophysiology platform, QPatch 16× (Sophion Bioscience, Copenhagen, Denmark), which uses the whole cell patch clamp technique to measure currents through the cell membrane of up to 16 cells at a time. The assay uses an HEK293 (human embryonic kidney) cell line heterologously expressing the wild-type human cardiac sodium channel, hNav1.5, purchased from Millipore (Billerica, Mass.). No beta subunits were coexpressed with the Na channel alpha subunit. Cells are maintained with standard tissue culture procedures and stable channel expression is maintained with 400 μg/mL Geneticin in the culture medium. […] Experiments are carried out at 23-25° C. For both the Late INa and Peak INa assays, series resistance compensation is set to 100% and series resistance and whole-cell compensation are performed automatically. Currents are digitized at 25 kHz and low-pass filtered at 12 kHz and 10 kHz for the late and peak INa assays, respectively. Currents through open sodium channels are automatically recorded and stored in the Sophion Bioscience Oracle database (Sophion Bioscience, Copehagen, Denmark). Analysis is performed using QPatch Assay and database software and data are compiled in Excel. Compound stocks are routinely made by the Gilead Sample Bank in plastic vials to 10 mM in dimethyl sulfoxide (DMSO). In some cases, when compounds are not soluble in DMSO, they are made in 100% ethanol. Stocks are sonicated as necessary. […] The intracellular solution used to perfuse the inside of the cells for both the Late INa and Peak INa assays contains: 120 mM CsF, 20 mM CsCl, 5 mM EGTA, 5 mM HEPES and pH adjusted to 7.4 with CsOH. Compounds are diluted in extracellular solution to 1 μM in glass vials and then transferred to glass well plates before robotic addition to the cells. […] Compounds were also evaluated for their effect in several other assays, including their effect on Peak INa. Good separation between the concentrations of test compound to reduce late and peak INa is beneficial to enable separation of the desired effect to reduce late INa-induced electrical and mechanical dysfunction from the undesired effect to reduce peak INa, which can lead to slowing or block of conduction of electrical excitation in the heart. It is contemplated that the compounds of Formula I avoid significant block of peak INa. Since the peak INa in the cells used herein can be very large, introducing artifacts in the recording, the concentration of Na^+ in the bath can be reduced to 20 mM and a nonpermeant cation added to compensate for the Na^+ that was removed to maintain the osmolarity and ionic strength of the solution (see solution details below). Analysis of peak INa generally requires correction for rundown before determining the % block of peak current by the tested compound. […] A low stimulation frequency of 0.1 Hz was used to determine the effect of the test compound when the channel spent most of the time in the resting (closed) state and provides information about Tonic Block (TB). A higher stimulation frequency (3 Hz) was used to measure block of the channel when it spent more time in the activated and inactivated states and provided a measure of Use-Dependent Block (UDB). Use-dependent block refers to the accumulation of block with increased frequency of channel activation. Block of cardiac peak INa by compounds of this invention is increased with an increase in the frequency of stimulation from 0.1 to 1-5 Hz (frequencies encountered either in the normal heart or during tachycardia). It is therefore expected that reduction of peak INa by compounds of this invention will be greater at high heart rates, such as those during tachyarrhythmias, than at normal heart rates. […]

[3] = Microsomal stability assay, human; assay type: in vitro ADME; conditions: metabolic stability, human liver microsomes 0.5 mg/mL, substrate 3 uM
Method: as §1

[4] = Microsomal stability assay, rat; assay type: in vitro ADME; conditions: metabolic stability, rat liver microsomes 0.5 mg/mL, substrate 3 uM
Method: as §1

[5] = biological target: wild-type human cardiac sodium channel, hNav1.5 (late INa) (Homo sapiens, UniProt Q14524); assay: Late INa screening assay (QPatch whole cell patch clamp); assay type: cell-based; conditions: percent block of late INa, compound at 1 μM, 10 μM Tefluthrin, HEK293 hNav1.5; read-out: Late INa 1 μM
wild-type human cardiac sodium channel, hNav1.5 (late INa), sequence (Q14524 whole entry): as above
Outline: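 HEK293 cells stably expressing hNav1.5 alpha subunit without beta subunits, QPatch automated whole-cell clamp at 23-25° C, CsF-based internal solution pH 7.4. Late INa induced by 10 μM tefluthrin; 250 ms steps to −20 mV from −120 mV at 0.1 Hz, compounds at 1 μM. Percent block of mean current 225–250 ms into the step.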

[6] = tonic block of peak INa, 0.1 Hz, read-out: Peak TB 1 μM
[7] = use-dependent block of peak INa, 3 Hz, read-out: Peak UDB 1 μM

In the case of `O=C1c2cc(-c3ccc(OC(F)(F)F)cc3)ccc2SCN1Cc1ccccn1` [Compound X-1, 3-(pyridin-2-ylmethyl)-6-(4-(trifluoromethoxy)phenyl)-2H-benzo[e][1,3]thiazin-4(3H)-one], the MS Dog THalf [1] is reported as 107 min, the inhibition at 1 µM [2, 6] is reported as 14% and the inhibition at 1 µM [2, 7] is reported as 22%. The MS Human THalf [3] was 74 min, the MS Rat THalf [4] was 58 min and the inhibition at 1 µM [5] was 47%.

For `O=C1c2cc(-c3ccc(OC(F)(F)F)cc3)ccc2SCN1Cc1ncccn1` [Compound X-2, 3-(pyrimidin-2-ylmethyl)-6-(4-(trifluoromethoxy)phenyl)-2H-benzo[e][1,3]thiazin-4(3H)-one], the MS Dog THalf [1] was 164 min, the inhibition at 1 µM [2, 6] was 14% and the inhibition at 1 µM [2, 7] was 17%. It also gave an MS Human THalf [3] of 142 min, an MS Rat THalf [4] of 137 min and an inhibition at 1 µM [5] of 55%.

`O=C1c2cc(-c3ccc(C(F)(F)F)cc3)ccc2SCN1Cc1ccccn1` [Compound X-3, 3-(pyridin-2-ylmethyl)-6-(4-(trifluoromethyl)phenyl)-2H-benzo[e][1,3]thiazin-4(3H)-one] showed an MS Dog THalf [1] of 137 min, an inhibition at 1 µM [2, 6] of 31% and an inhibition at 1 µM [2, 7] of 35%. For the same compound, the MS Human THalf [3] was 36 min, the MS Rat THalf [4] was 45 min and the inhibition at 1 µM [5] was 67%.

Compound `O=C1c2cc(-c3ccc(C(F)(F)F)cc3)ccc2SCN1Cc1ncccn1` [Compound X-4, 3-(pyrimidin-2-ylmethyl)-6-(4-(trifluoromethyl)phenyl)-2H-benzo[e][1,3]thiazin-4(3H)-one] has an MS Dog THalf [1] of 126 min, an inhibition at 1 µM [2, 6] of 27% and an inhibition at 1 µM [2, 7] of 25%. It also gave an MS Human THalf [3] of 103 min, an MS Rat THalf [4] of 122 min and an inhibition at 1 µM [5] of 52%.

With `O=C1c2cc(-c3ccc(C(F)(F)F)cc3)ccc2SCN1Cc1ccccc1Cl` [Compound X-5, 3-(2-chlorobenzyl)-6-(4-(trifluoromethyl)phenyl)-2H-benzo[e][1,3]thiazin-4(3H)-one] the MS Dog THalf [1] was 55 min, the inhibition at 1 µM [2, 6] was 12% and the inhibition at 1 µM [2, 7] was 35%. For the same compound, the MS Human THalf [3] was 48 min, the MS Rat THalf [4] was 57 min and the inhibition at 1 µM [5] was 57%.

`O=C1c2cc(-c3ccc(C(F)(F)F)cc3)ccc2SCN1Cc1ncccc1F` [Compound X-6, 3-((3-fluoropyridin-2-yl)methyl)-6-(4-(trifluoromethyl)phenyl)-2H-benzo[e][1,3]thiazin-4(3H)-one] showed an MS Dog THalf [1] of 120 min, an inhibition at 1 µM [2, 6] of 35% and an inhibition at 1 µM [2, 7] of 32%. The MS Human THalf [3] was 38 min, the MS Rat THalf [4] was 46 min and the inhibition at 1 µM [5] was 69%.

Work on `O=C1c2cc(-c3ccc(OC(F)(F)F)cc3)ccc2SCN1Cc1ncccc1F` [Compound X-9, 3-((3-fluoropyridin-2-yl)methyl)-6-(4-(trifluoromethoxy)phenyl)-2H-benzo[e][1,3]thiazin-4(3H)-one] yielded an MS Dog THalf [1] of 75 min, an inhibition at 1 µM [2, 6] of 39% and an inhibition at 1 µM [2, 7] of 31%. The MS Human THalf [3] was 70 min, the MS Rat THalf [4] was 47 min and the inhibition at 1 µM [5] was 67%.

`O=c1c2cc(-c3ccc(OC(F)(F)F)cc3)ccc2nnn1Cc1ncc(Cl)cn1` [II-4, 3((5-chloropyrimidin-2-yl)methyl)-6-(4-(trifluoromethoxy)phenyl)benzo[d][1,2,3]triazin-4(3H)-one] gave an MS Dog THalf [1] of 61 min, an inhibition at 1 µM [2, 6] of 9% and an inhibition at 1 µM [2, 7] of 4%. For the same compound, the MS Human THalf [3] was 270 min, the MS Rat THalf [4] was 135 min and the inhibition at 1 µM [5] was 41%.

For `O=c1c2cc(-c3ccc(OC(F)(F)F)cc3)ccc2nnn1Cc1ncccn1` [II-24, 3-(pyrimidin-2-ylmethyl)-6-(4-(trifluoromethoxy)phenyl)benzo[d][1,2,3]triazin-4(3H)-one], the MS Dog THalf [1] was 219 min, the inhibition at 1 µM [2, 6] was 19% and the inhibition at 1 µM [2, 7] was 24%. The MS Human THalf [3] was over 395 min, the MS Rat THalf [4] was 324 min and the inhibition at 1 µM [5] was 60%.

In the case of `Cc1cc(Cn2nnc3ccc(-c4ccc(OC(F)(F)F)cc4)cc3c2=O)on1` [II-25, 3-((3-methylisoxazol-5-yl)methyl)-6-(4-(trifluoromethoxy)phenyl)benzo[d][1,2,3]triazin-4(3H)-one], the MS Dog THalf [1] is reported as 117 min, the inhibition at 1 µM [2, 6] is reported as 9% and the inhibition at 1 µM [2, 7] is reported as 2%. It also gave an MS Human THalf [3] of 363 min, an MS Rat THalf [4] of 298 min and an inhibition at 1 µM [5] of 50%.

`Cc1cc(Cn2nnc3ccc(-c4ccc(OC(F)(F)F)cc4)cc3c2=O)no1` [II-26, 3-((5-methylisoxazol-3-yl)methyl)-6-(4-(trifluoromethoxy)phenyl)benzo[d][1,2,3]triazin-4(3H)-one] gave an MS Dog THalf [1] of 67 min, an inhibition at 1 µM [2, 6] of 14% and an inhibition at 1 µM [2, 7] of 5%. For the same compound, the MS Human THalf [3] was 382 min, the MS Rat THalf [4] was 80 min and the inhibition at 1 µM [5] was 47%.

In the case of `O=c1c2cc(-c3ccc(Oc4ccc(Cl)cc4)cc3)ccc2nnn1CCn1cccn1` [II-29, 3-(2-(1H-pyrazol-1-yl)ethyl)-6-(4-(4-chlorophenoxyl)phenyl)benzo[d][1,2,3]triazin-4(3H)-one], the MS Dog THalf [1] is reported as 99 min, the inhibition at 1 µM [2, 6] is reported as 44% and the inhibition at 1 µM [2, 7] is reported as 67%. For the same compound, the MS Human THalf [3] was 51 min, the MS Rat THalf [4] was 27 min and the inhibition at 1 µM [5] was 52%.

Compound `Cc1nccn1CC1(Cn2nnc3ccc(-c4ccc(OC(F)(F)F)cc4)cc3c2=O)CC1` [II-34, 3-((1-((2-methyl-1H-imidazol-1-yl)methyl)cyclopropyl)methyl)-6-(4-(trifluoromethoxy)phenyl)benzo[d][1,2,3]triazin-4(3H)-one] has an MS Dog THalf [1] of 2 min, an inhibition at 1 µM [2, 6] of 27% and an inhibition at 1 µM [2, 7] of 34%. For the same compound, the MS Human THalf [3] was 2 min, the MS Rat THalf [4] was 2 min and the inhibition at 1 µM [5] was 48%.

For `COc1cc(OC)nc(Cn2nnc3ccc(-c4ccc(OC(F)(F)F)cc4)cc3c2=O)n1` [II-44, 3-((4,6-dimethoxypyrimidin-2-yl)methyl)-6-(4-(trifluoromethoxy)phenyl)benzo[d][1,2,3]triazin-4(3H)-one], the MS Dog THalf [1] was 283 min, the inhibition at 1 µM [2, 6] was 10% and the inhibition at 1 µM [2, 7] was 4%. It also gave an MS Human THalf [3] of 167 min, an MS Rat THalf [4] of 97 min and an inhibition at 1 µM [5] of 47%.

For `O=c1c2cc(-c3ccc(OC(F)(F)F)cc3)ccc2nnn1Cc1cc(-c2ccccn2)on1` [II-47, 3-((5-(pyridin-2-yl)isoxazol-3-yl)methyl)-6-(4-(trifluoromethoxy)phenyl)benzo[d][1,2,3]triazin-4(3H)-one], the MS Dog THalf [1] was 24 min, the inhibition at 1 µM [2, 6] was 6% and the inhibition at 1 µM [2, 7] was 4%. It also gave an MS Human THalf [3] of 339 min, an MS Rat THalf [4] of 71 min and an inhibition at 1 µM [5] of 44%.

From patent publication US20150329558A1, “FUSED HETEROCYCLIC COMPOUNDS AS ION CHANNEL MODULATORS” (Gilead Sciences, Inc., priority 2011, published 2015)
